20 compounds from patent US20250144067A1, “PERSONALIZED STARVATION THERAPY FOR CANCER” (Faeth Therapeutics, Inc., priority 2021, published 2025) can be followed below.

The test system of test [1] is NCI-H292 lung cancer cells. Kind of test: FDA drug screening, complete media vs cholesterol-free media without statin (TABLE 1). The class given is cell-based, human.
Test [2] concerns NCI-H292 lung cancer cells. Kind of test: FDA drug screening, complete media vs cholesterol-free media with simvastatin (TABLE 2). Conditions: for Cholesterol-free media + simvastatin (0.04 μM) / Complete Media: NCI-H292 cells. The class given is cell-based, human.
Where [3] appears, read: Complete minus Cholesterol-free, >0 enhanced anti-cancer activity, about 0 neutral, <0 antagonist.
Where [4] appears, read: NCI-H292 cells, cholesterol-free media without statin, FDA drug library screen.
The mark [5] stands for this setting: NCI-H292 cells, complete media, FDA drug library screen.
[6] abbreviates: cholesterol-free media with simvastatin 0.04 μM, FDA drug library screen (TABLE 2).
[7] abbreviates: complete media, FDA drug library screen (TABLE 2).
[8] abbreviates: complete media minus cholesterol-free media + simvastatin (0.04 μM), >0 enhanced anti-cancer activity, about 0 neutral, <0 antagonist.
The mark [9] stands for this setting: NCI-H292 cells, cholesterol-free media without statin.
[10] abbreviates: complete vs cholesterol-free media, greater than 0 enhanced anti-cancer activity, about 0 neutral, below 0 antagonists.
Where [11] appears, read: FDA drug library screen, cholesterol-free media with simvastatin 0.04 μM.
The mark [12] stands for this setting: FDA drug library screen, complete media.
Setting [13] is: complete media vs cholesterol-free media + simvastatin (0.04 μM), >0 enhanced anti-cancer activity, about 0 neutral, <0 antagonist.
The mark [14] stands for this setting: Complete minus Cholesterol-free, greater than 0 enhanced anti-cancer activity, about 0 neutral, below 0 antagonist.
Where [15] appears, read: NCI-H292 cells, FDA drug library screen, cholesterol-free media without statin.
[16] abbreviates: NCI-H292 cells, FDA drug library screen, complete media.
Where [17] appears, read: Complete minus Cholesterol-free, […].
[18] abbreviates: NCI-H292 cells in cholesterol-free media without statin.
Setting [19] is: NCI-H292 cells in complete media.
Setting [20] is: complete media minus cholesterol-free media + simvastatin, […].
[21] abbreviates: drug in cholesterol-free media with simvastatin 0.04 μM.
[22] abbreviates: complete vs cholesterol-free media, >0 enhanced anti-cancer activity, about 0 neutral, <0 antagonist.
Setting [23] is: complete media minus cholesterol-free media + simvastatin, >0 enhanced anti-cancer activity, about 0 neutral, <0 antagonist.
The mark [24] stands for this setting: complete media vs cholesterol-free media + simvastatin (0.04 μM), […].
Where [25] appears, read: FDA library drug in cholesterol-free media with simvastatin 0.04 μM.
[26] abbreviates: FDA library drug in complete media.

Counter-ions that a name gives are not always drawn.

Regarding `Nc1nc(O)c2ncn(COC(CO)CO)c2n1` [Ganciclovir], the Difference in test [1] (setting [3]) is 0.07; in test [2] (setting [8]), −0.02. This compound also yielded a Cholesterol-free in test [1] (setting [4]) of 0.8931. Besides, the Complete in test [1] (setting [5]) is recorded as 0.9638. Moreover, the “Cholesterol-free media + simvastatin (0.04 μM)” value in test [2] (setting [6]) was 0.88. Besides, the “Complete Media” value in test [2] (setting [7]) is given as 0.8599.
In the case of Pixantrone (dimaleate), the Cholesterol-free in test [1] (setting [9]) came out at 1.33. The compound also had a Complete in test [1] (NCI-H292 cells, complete media) of 0.8848. Besides, the Difference is reported as −0.45 in test [1] (setting [10]) and −0.12 in test [2] (setting [13]). In addition, the “Cholesterol-free media + simvastatin (0.04 μM)” value in test [2] (setting [11]) came out at 1.334. In addition, the “Complete Media” value in test [2] (setting [12]) is 1.212.
Consider (+)-Catechin hydrate, for which the Difference was 0.05 in test [1] (setting [3]) and −0.05 in test [2] (setting [8]).
`C[C@]12CC[C@@H]3c4ccc(O)cc4CC[C@H]3[C@@H]1C[C@@H](O)[C@@H]2O` [Estriol] returned a Cholesterol-free in test [1] (setting [9]) of 1.14. Further, in test [1] (NCI-H292 cells, complete media), the Complete worked out at 0.7448. Besides, the Difference in test [1] (setting [10]) is recorded as −0.40; in test [2] (setting [13]), −0.10. In test [2] (setting [11]), the “Cholesterol-free media + simvastatin (0.04 μM)” value amounted to 0.9551. In addition, the “Complete Media” value in test [2] (setting [12]) came out at 0.851.
As for `CC(OC(=O)NCC1(CC(=O)O)CCCCC1)OC(=O)C(C)C` (centres unmarked) [Gabapentin enacarbil], the Difference in test [1] (setting [14]) was −0.14; in test [2] (setting [13]), −0.10. This compound also had a Cholesterol-free in test [1] (setting [15]) of 1.017. The Complete in test [1] (setting [16]) stood at 0.8727. The “Cholesterol-free media + simvastatin (0.04 μM)” value in test [2] (setting [11]) is 1.032. In addition, the “Complete Media” value in test [2] (setting [12]) came out at 0.9332.
Turning to `CCOC(=O)c1cncn1[C@H](C)c1ccccc1` [Etomidate (hydrochloride)], the Difference in test [1] (setting [17]) is −0.60; in test [2] (setting [20]) it was 0.23. The Cholesterol-free in test [1] (setting [18]) turned out to be 1.469. In test [1] (setting [19]), this compound displayed a Complete of 0.8733. In addition, the “Cholesterol-free media + simvastatin (0.04 μM)” value in test [2] (setting [11]) was determined as 0.8714. In addition, the “Complete Media” value in test [2] (setting [12]) came to 1.097.
For `Cc1cc(-c2ccc(/N=N/c3ccc4c(S(=O)(=O)O)cc(S(=O)(=O)O)c(N)c4c3O)c(C)c2)ccc1/N=N/c1ccc2c(S(=O)(=O)O)cc(S(=O)(=O)O)c(N)c2c1O` [Evans Blue], the Difference is −0.05 in test [1] (setting [3]) and −0.19 in test [2] (setting [13]). Further, in test [1] (setting [4]), the Cholesterol-free is on record as 1.165. Also, the Complete in test [1] (setting [5]) was determined as 1.11. Further, the “Cholesterol-free media + simvastatin (0.04 μM)” value in test [2] (setting [21]) is given as 1.142. The “Complete Media” value in test [2] (drug in complete media) is given as 0.9534.
In test [1] (setting [4]), `CCCCCCCCCC(=O)OCCN1CCN(CCCN2c3ccccc3Sc3ccc(C(F)(F)F)cc32)CC1` [Fluphenazine decanoate] returned a Cholesterol-free of 0.4638. In test [1] (setting [5]), this compound came in with a Complete of 1.069. Moreover, the values for the Difference in test [1] (setting [22]) and in test [2] (setting [23]) were 0.60 and 0.23, respectively. Besides, in test [2] (setting [11]), the “Cholesterol-free media + simvastatin (0.04 μM)” value came to 0.7434. The “Complete Media” value in test [2] (setting [12]) was found to be 0.9759.
Take `C[C@H]1COc2c(N3CCN(C)CC3)c(F)cc3c(=O)c(C(=O)O)cn1c23` [Levofloxacin (hydrate)]: the Difference in test [1] (Complete minus Cholesterol-free, greater than 0 enhanced anti-cancer activity, about 0 neutral, below 0 antagonists) is reported as −0.48; in test [2] (setting [13]), −0.12. Further, the Cholesterol-free in test [1] (setting [18]) stood at 1.308. The compound also had a Complete in test [1] (setting [19]) of 0.8243. In test [2] (setting [11]), the “Cholesterol-free media + simvastatin (0.04 μM)” value was found to be 1.078. Further, the “Complete Media” value in test [2] (setting [12]) turned out to be 0.9583.
As to Estradiol (cypionate), the Difference is listed as −0.22 in test [1] (setting [17]) and −0.09 in test [2] (setting [24]). In test [1] (setting [9]), this compound gave a Cholesterol-free of 1.127. In addition, in test [1] (NCI-H292 cells, complete media), the Complete is recorded as 0.9066. The “Cholesterol-free media + simvastatin (0.04 μM)” value in test [2] (setting [11]) worked out at 0.9809. Moreover, the “Complete Media” value in test [2] (setting [12]) amounted to 0.8945.
For the compound `CNCCc1ccccn1` [Betahistine (dihydrochloride)], the Cholesterol-free in test [1] (setting [9]) amounted to 1.528. The compound also had a Complete in test [1] (NCI-H292 cells, complete media) of 1.139. Further, the Difference in test [1] (setting [10]) is given as −0.39; in test [2] (setting [13]) it was −0.22. Moreover, in test [2] (setting [21]), the “Cholesterol-free media + simvastatin (0.04 μM)” value amounted to 1.02. For the same compound, in test [2] (drug in complete media), the “Complete Media” value turned out to be 0.8007.
Compound `CCc1ccc(Cc2ccc3c(c2)[C@]2(OC3)O[C@H](CO)[C@@H](O)[C@H](O)[C@H]2O)cc1` [Tofogliflozin (hydrate)] came in with a Cholesterol-free in test [1] (setting [9]) of 1.411. The same compound had a Complete in test [1] (NCI-H292 cells, complete media) of 1.03. For the same compound, the Difference in test [1] (setting [10]) is on record as −0.38; in test [2] (setting [23]), 0.08. Besides, the “Cholesterol-free media + simvastatin (0.04 μM)” value in test [2] (cholesterol-free media with simvastatin 0.04 μM, cell growth value in FDA drug screen) is recorded as 0.9605. Further, in test [2] (complete media, cell growth value in FDA drug screen), the “Complete Media” value is on record as 1.04.
Oxeladin (citrate): the Difference in test [1] (setting [17]) is recorded as −0.55; in test [2] (setting [20]) it was 0.76. The Cholesterol-free in test [1] (setting [18]) is 1.475. In test [1] (setting [19]), this compound had a Complete of 0.921. Moreover, the “Cholesterol-free media + simvastatin (0.04 μM)” value in test [2] (setting [11]) was 0.7029. The “Complete Media” value in test [2] (setting [12]) is listed as 1.466.
For the compound `CNCc1cc(-c2ccccc2F)n(S(=O)(=O)c2cccnc2)c1` [Vonoprazan], the Difference in test [1] (setting [14]) is recorded as −0.07; in test [2] (setting [13]) it was −0.40. Further, the Cholesterol-free in test [1] (setting [15]) was determined as 1.105. The compound also had a Complete in test [1] (setting [16]) of 1.031. Further, the “Cholesterol-free media + simvastatin (0.04 μM)” value in test [2] (setting [25]) is 1.249. The “Complete Media” value in test [2] (setting [26]) was determined as 0.8473.
Consider `CC1(C)S[C@@H]2[C@H](NC(=O)[C@H](N)c3ccc(O)cc3)C(=O)N2[C@H]1C(=O)[O-].[Na+]` [Amoxicillin (sodium)], for which the Difference in test [1] (setting [14]) was −0.16; in test [2] (setting [13]), −0.18. For the same compound, in test [1] (setting [15]), the Cholesterol-free is on record as 0.8965. Besides, in test [1] (setting [16]), the Complete is on record as 0.7329. For the same compound, in test [2] (setting [21]), the “Cholesterol-free media + simvastatin (0.04 μM)” value is 0.9358. In test [2] (drug in complete media), the “Complete Media” value came to 0.759.
Compound Paromomycin (sulfate) showed a Cholesterol-free in test [1] (setting [4]) of 0.541. In addition, the Complete in test [1] (setting [5]) is 1.15. In addition, the Difference in test [1] (complete vs cholesterol-free media, […]) was 0.61; in test [2] (setting [24]) it was −0.17. Also, the “Cholesterol-free media + simvastatin (0.04 μM)” value in test [2] (setting [21]) worked out at 1.383. Besides, the “Complete Media” value in test [2] (drug in complete media) is given as 1.216.
With `O=C(COc1ccc(Cl)cc1)N1CCN(Cc2ccc3c(c2)OCO3)CC1` [Fipexide], the Difference in test [1] (setting [3]) was −0.02; in test [2] (setting [13]) it was −0.43. For the same compound, in test [1] (setting [4]), the Cholesterol-free worked out at 1.201. This compound also showed a Complete in test [1] (setting [5]) of 1.177. Further, the “Cholesterol-free media + simvastatin (0.04 μM)” value in test [2] (setting [25]) is on record as 1.655. Besides, in test [2] (setting [26]), the “Complete Media” value is reported as 1.225.
`CC(C)c1c(C(=O)Nc2ccccc2)c(-c2ccccc2)c(-c2ccc(F)cc2)n1CC[C@@H](O)C[C@@H](O)CC(=O)O` [Atorvastatin (hemicalcium salt)]: the Difference is recorded as −0.21 in test [1] (setting [3]) and 0.27 in test [2] (setting [23]). Also, the Cholesterol-free in test [1] (setting [9]) is 0.7947. For the same compound, the Complete in test [1] (NCI-H292 cells, complete media) worked out at 0.5817. For the same compound, the “Cholesterol-free media + simvastatin (0.04 μM)” value in test [2] (setting [11]) was found to be 0.4555. Besides, the “Complete Media” value in test [2] (setting [12]) was 0.7295.
Take `C=C(c1ccc(C(=O)O)cc1)c1cc2c(cc1C)C(C)(C)CCC2(C)C` [Bexarotene]: the Difference in test [1] (setting [3]) is given as −0.22; in test [2] (setting [13]), −0.10. This compound also yielded a Cholesterol-free in test [1] (setting [9]) of 1.341. The same compound displayed a Complete in test [1] (NCI-H292 cells, complete media) of 1.124. The “Cholesterol-free media + simvastatin (0.04 μM)” value in test [2] (setting [11]) came to 1.087. Besides, the “Complete Media” value in test [2] (setting [12]) was 0.9865.
`O=C(O)c1cc(-c2ccc(F)cc2F)ccc1O` [Diflunisal]: in test [1] (setting [4]), the Cholesterol-free is reported as 1.041. Also, the Complete in test [1] (setting [5]) came out at 1.674. Also, the values for the Difference in test [1] (setting [22]) and in test [2] (setting [8]) were 0.63 and 0.00, respectively. Also, the “Cholesterol-free media + simvastatin (0.04 μM)” value in test [2] (setting [6]) is on record as 0.785. For the same compound, in test [2] (setting [7]), the “Complete Media” value is given as 0.7827.
